Organism: Rattus norvegicus
Assay: Open TG-GATES - Regimen: Single
Assay type: toxicity, organism-based, Sprague-Dawley
Design: regimen Single, gender Male, age 6 weeks
Conditions: in vivo, po, 30 mg/kg, route gavage, dose level Low; for APTT / Bas / Eos / Fbg / Hb / Ht / Lym / MCH / MCHC / MCV / Mono / Neu / PT / Plat / RBC / Ret / WBC: tissue Blood; for KIDNEY_L / KIDNEY_R / KIDNEY_TOTAL: tissue Kidney; for LIVER: tissue Liver; for A/G / ALP / ALT / AST / BUN / CRE / Ca / Cl / DBIL / GLC / IP / K / LDH / Na / PL / RALB / TBIL / TC / TG / TP / gamma-GTP: tissue Plasma

Nc1ccc(Cc2ccc(N)cc2)cc1
TERMINAL_BW (3 h): 209.5 g
APTT (3 h): 14.3 s
Bas (3 h): 0%
Eos (3 h): 0.6%
Fbg (3 h): 262.8 mg/dL
Hb (3 h): 13 g/dL
Ht (3 h): 38%
Lym (3 h): 74.2%
MCH (3 h): 21 pg
MCHC (3 h): 34.1%
MCV (3 h): 61.4 fL
Mono (3 h): 3.6%
Neu (3 h): 20.8%
PT (3 h): 12 s
Plat (3 h): 147.2 x10_4/uL
RBC (3 h): 619 x10_4/ul
Ret (3 h): 7.8%
WBC (3 h): 100.2 x10_2/uL
KIDNEY_L (3 h): 0.9 g
KIDNEY_R (3 h): 0.9 g
KIDNEY_TOTAL (3 h): 1.8 g
LIVER (3 h): 8.8 g
A/G (3 h): 0.8
ALP (3 h): 1545.4 IU/L
ALT (3 h): 47.4 IU/L
AST (3 h): 81.6 IU/L
BUN (3 h): 11 mg/dL
CRE (3 h): 0.2 mg/dL
Ca (3 h): 10.9 mg/dL
Cl (3 h): 105 meq/L
DBIL (3 h): 0.022 mg/dL
GLC (3 h): 172 mg/dL
IP (3 h): 9.1 mg/dL
K (3 h): 3.8 meq/L
LDH (3 h): 65.4 IU/L
Na (3 h): 141.2 meq/L
PL (3 h): 138.6 mg/dL
RALB (3 h): 2.6 g/dL
TBIL (3 h): 0.062 mg/dL
TC (3 h): 73 mg/dL
TG (3 h): 79.4 mg/dL
TP (3 h): 5.6 g/dL
gamma-GTP (3 h): 1.4 IU/L
TERMINAL_BW (6 h): 206.3 g
APTT (6 h): 14.7 s
Bas (6 h): 0%
Eos (6 h): 0.6%
Fbg (6 h): 274.6 mg/dL
Hb (6 h): 13.2 g/dL
Ht (6 h): 38.9%
Lym (6 h): 70.8%
MCH (6 h): 21.3 pg
MCHC (6 h): 34%
MCV (6 h): 62.7 fL
Mono (6 h): 2.2%
Neu (6 h): 25.2%
PT (6 h): 11.5 s
Plat (6 h): 141.7 x10_4/uL
RBC (6 h): 621.2 x10_4/ul
Ret (6 h): 8.2%
WBC (6 h): 77.7 x10_2/uL
KIDNEY_L (6 h): 0.9 g
KIDNEY_R (6 h): 0.9 g
KIDNEY_TOTAL (6 h): 1.8 g
LIVER (6 h): 8.6 g
A/G (6 h): 0.8
ALP (6 h): 1547 IU/L
ALT (6 h): 37.2 IU/L
AST (6 h): 74.2 IU/L
BUN (6 h): 7.4 mg/dL
CRE (6 h): 0.2 mg/dL
Ca (6 h): 10.7 mg/dL
Cl (6 h): 107.2 meq/L
DBIL (6 h): 0.022 mg/dL
GLC (6 h): 167 mg/dL
IP (6 h): 9.6 mg/dL
K (6 h): 4 meq/L
LDH (6 h): 52.4 IU/L
Na (6 h): 141.8 meq/L
PL (6 h): 146.2 mg/dL
RALB (6 h): 2.5 g/dL
TBIL (6 h): 0.074 mg/dL
TC (6 h): 81 mg/dL
TG (6 h): 61.2 mg/dL
TP (6 h): 5.6 g/dL
gamma-GTP (6 h): 1.2 IU/L
TERMINAL_BW (9 h): 205 g
APTT (9 h): 13.5 s
Bas (9 h): 0%
Eos (9 h): 0.8%
Fbg (9 h): 260 mg/dL
Hb (9 h): 12.8 g/dL
Ht (9 h): 37.2%
Lym (9 h): 74%
MCH (9 h): 21.3 pg
MCHC (9 h): 34.2%
MCV (9 h): 62.1 fL
Mono (9 h): 2.4%
Neu (9 h): 22%
PT (9 h): 11.8 s
Plat (9 h): 138.8 x10_4/uL
RBC (9 h): 600 x10_4/ul
Ret (9 h): 8.6%
WBC (9 h): 106 x10_2/uL
KIDNEY_L (9 h): 0.9 g
KIDNEY_R (9 h): 0.9 g
KIDNEY_TOTAL (9 h): 1.8 g
LIVER (9 h): 7.6 g
A/G (9 h): 0.8
ALP (9 h): 1400.6 IU/L
ALT (9 h): 34.4 IU/L
AST (9 h): 75.4 IU/L
BUN (9 h): 8.8 mg/dL
CRE (9 h): 0.2 mg/dL
Ca (9 h): 10.5 mg/dL
Cl (9 h): 106.8 meq/L
DBIL (9 h): 0.03 mg/dL
GLC (9 h): 167.6 mg/dL
IP (9 h): 11.3 mg/dL
K (9 h): 4.1 meq/L
LDH (9 h): 53.8 IU/L
Na (9 h): 143.4 meq/L
PL (9 h): 134.6 mg/dL
RALB (9 h): 2.5 g/dL
TBIL (9 h): 0.094 mg/dL
TC (9 h): 76 mg/dL
TG (9 h): 50.2 mg/dL
TP (9 h): 5.4 g/dL
gamma-GTP (9 h): 1.6 IU/L
TERMINAL_BW (24 h): 219.9 g
APTT (24 h): 13.8 s
Bas (24 h): 0%
Eos (24 h): 1%
Fbg (24 h): 278.6 mg/dL
Hb (24 h): 13.4 g/dL
Ht (24 h): 38.6%
Lym (24 h): 72.2%
MCH (24 h): 20.9 pg
MCHC (24 h): 34.7%
MCV (24 h): 60.2 fL
Mono (24 h): 2.6%
Neu (24 h): 23.6%
PT (24 h): 11.6 s
Plat (24 h): 137.1 x10_4/uL
RBC (24 h): 640.4 x10_4/ul
Ret (24 h): 6.5%
WBC (24 h): 93 x10_2/uL
KIDNEY_L (24 h): 0.9 g
KIDNEY_R (24 h): 1 g
KIDNEY_TOTAL (24 h): 1.9 g
LIVER (24 h): 10.1 g
A/G (24 h): 0.9
ALP (24 h): 1877.6 IU/L
ALT (24 h): 44 IU/L
AST (24 h): 82 IU/L
BUN (24 h): 14.8 mg/dL
CRE (24 h): 0.2 mg/dL
Ca (24 h): 11.1 mg/dL
Cl (24 h): 105.6 meq/L
DBIL (24 h): 0.02 mg/dL
GLC (24 h): 168.4 mg/dL
IP (24 h): 8 mg/dL
K (24 h): 4 meq/L
LDH (24 h): 53.6 IU/L
Na (24 h): 143.4 meq/L
PL (24 h): 160.2 mg/dL
RALB (24 h): 2.7 g/dL
TBIL (24 h): 0.046 mg/dL
TC (24 h): 92.8 mg/dL
TG (24 h): 91.6 mg/dL
TP (24 h): 5.7 g/dL
gamma-GTP (24 h): 1 IU/L

From ChEMBL document CHEMBL3885861, “Open TG-GATES”
